Experimental findings from patent publication US10626112B2, “Heterocyclic sulfonamide derivative and medicine comprising same” (EA PHARMA CO., LTD., priority 2014, dated 2020) are described below.

This assay addresses human TRPA1 (Homo sapiens (Human), UniProt O75762). In words: Measurement of TRPA1 antagonist activity (2): as (1), different lot of human TRPA1 expression plasmid. To be noted: 293T cells transfected with human TRPA1, allylisothiocyanate 20 μM stimulation, calcium fluorescence, read-out: hTRPA1 IC50. It is filed as cell-based. Here is the method: Human embryonic kidney-derived 293T cells were cultured in Dulbecco's Modified Eagle Medium containing 10% fetal bovine serum, 10 unit penicillin, and 10 μg streptomycin, plated on a petri dish having a diameter of 10 cm at 3×10^6 cells, and cultured for 24 hr in a CO2 incubator. A reduced serum medium (manufactured by Invitrogen, trade name: OPTI-MEM, 600 μL), a gene transfer reagent (manufactured by Mirus Bio, trade name: Mirus TransIT-293, 18 μL), and human TRPA1 expression plasmid (6 μg) were mixed, the total amount of the mixture was added to the cells on the petri dish to allow for gene transfer. The cells were recovered about for 8 hr later, plated on a poly-D-lysine coated 384 well black/clear bottom plate at 12,000 cells/well, and cultured overnight.
Measurement of Intracellular Calcium Increase
The 384 well plate was recovered, and the medium was removed. A calcium-bonded fluorescent indicator (manufactured by Molecular Device, trade name: Calcium4 Assay Kit, 38 μL) dissolved in assay buffer (1×HBSS, 20 mM HEPES, pH 7.2) was added, and the cells were stained in a CO2 incubator for 1 hr. The cells were taken out at room temperature, stood for not less than 15 min, a test substance (10 μL) was added by a platereader FDSS7000 (Hamamatsu Photonics K.K.) equipped with a 384ch dispenser. After 10 min, allylisothiocyanate (12 μL) was further added at a final concentration of 20 μM, and changes in the relative fluorescence intensity after addition of allylisothiocyanate were measured for 5 min.
Test Substance Preparation
The test substance was dissolved in dimethyl sulfoxide and serially diluted with an assay buffer containing 0.1% bovine serum albumin (1×HBSS, 20 mM HEPES, pH 7.2) to a 4.8-fold concentration of the evaluation concentration. Allylisothiocyanate, which is a known TRPA1 activator, was dissolved in dimethyl sulfoxide to 100 mM, and further diluted 5-fold (100 μM) of the final concentration, like the test substance.
Calculation of Antagonist Activity
Under the test substance-free conditions, the maximum variation range of the fluorescence intensity before and after allylisothiocyanate stimulation was defined to be 100% activity rate, and the variation range before and after buffer stimulation was defined as 0% activity rate. The activity rate on addition of the test substance was determined, and the numerical value obtained by subtracting the activity rate from 100 was defined to be an inhibitory rate. IC50, which is the concentration of the test substance necessary for reaching the 50% inhibitory rate, was calculated from the sigmoid approximate curve by a spreadsheet software Excel-Fit.
Measurement of TRPA1 Antagonist Activity (2)
By a method similar to that in Experimental Example 1-1 except that the lot of human […] expression plasmid is different, the TRPA1 antagonist activity of the test substance was measured.

Sequence of human TRPA1 (O75762 whole entry): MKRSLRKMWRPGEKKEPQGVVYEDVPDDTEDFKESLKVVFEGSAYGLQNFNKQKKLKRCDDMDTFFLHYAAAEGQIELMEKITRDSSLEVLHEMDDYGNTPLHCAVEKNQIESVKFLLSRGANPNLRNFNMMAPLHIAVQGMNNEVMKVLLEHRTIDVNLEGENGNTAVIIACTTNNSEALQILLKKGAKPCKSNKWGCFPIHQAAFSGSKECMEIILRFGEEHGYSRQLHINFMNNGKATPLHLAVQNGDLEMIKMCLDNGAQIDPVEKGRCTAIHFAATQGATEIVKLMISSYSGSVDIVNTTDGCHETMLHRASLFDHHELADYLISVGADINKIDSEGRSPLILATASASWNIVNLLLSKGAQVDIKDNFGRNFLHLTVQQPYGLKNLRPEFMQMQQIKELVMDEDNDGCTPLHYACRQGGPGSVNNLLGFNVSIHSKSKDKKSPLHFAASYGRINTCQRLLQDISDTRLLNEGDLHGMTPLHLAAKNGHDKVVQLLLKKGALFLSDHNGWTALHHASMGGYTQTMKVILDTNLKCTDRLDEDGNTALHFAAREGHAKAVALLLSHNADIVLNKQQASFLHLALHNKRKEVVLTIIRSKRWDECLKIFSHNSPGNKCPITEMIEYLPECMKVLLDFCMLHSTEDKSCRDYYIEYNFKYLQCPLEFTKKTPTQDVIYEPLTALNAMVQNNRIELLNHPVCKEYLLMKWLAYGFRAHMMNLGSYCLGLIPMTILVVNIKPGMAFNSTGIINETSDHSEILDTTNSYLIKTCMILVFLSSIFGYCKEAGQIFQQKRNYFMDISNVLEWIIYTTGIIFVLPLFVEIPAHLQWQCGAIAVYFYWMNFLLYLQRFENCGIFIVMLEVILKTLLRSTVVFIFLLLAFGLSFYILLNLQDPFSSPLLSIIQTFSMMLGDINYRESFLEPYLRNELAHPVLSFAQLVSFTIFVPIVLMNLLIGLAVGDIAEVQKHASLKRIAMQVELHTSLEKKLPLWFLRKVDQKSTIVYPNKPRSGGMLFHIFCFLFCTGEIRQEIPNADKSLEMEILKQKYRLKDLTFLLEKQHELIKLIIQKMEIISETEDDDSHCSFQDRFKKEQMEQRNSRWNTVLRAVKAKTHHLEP

As a reminder, the IC50 is the concentration at which inhibition is half-maximal. As for `O=C(CNS(=O)(=O)c1cc2cc(F)ccc2o1)NCc1cc(-c2ccc(OC(F)(F)F)cc2)ncn1` [Example 363, 2-[(5-fluorobenzofuran-2-yl)sulfonylamino]-N-[[6-[4-(trifluoromethoxy)phenyl]-pyrimidin-4-yl]methyl]acetamide], the IC50 was 0.92 µM. Regarding `CC(C)N(CC(=O)NCc1cc(-c2ccc(OC(F)(F)F)cc2)ncn1)S(=O)(=O)c1cc2cc(F)ccc2o1` [Example 364, 2-[(5-fluorobenzofuran-2-yl)sulfonyl-isopropyl-amino]-N-[[6-[4-(trifluoromethoxy)-phenyl]pyrimidin-4-yl]methyl]acetamide], the half-inhibitory concentration (IC50) was determined as 0.01 µM. For the compound `O=C(NCc1cc(-c2ncc(C(F)(F)F)cn2)ccn1)[C@@H]1CCCN1S(=O)(=O)c1cc2cnccc2o1` [Example 365, (2S)-1-furo[3,2-c]pyridin-2-ylsulfonyl-N-[[4-[5-(trifluoromethyl)pyrimidin-2-yl]-2-pyridyl]methyl]pyrrolidine-2-carboxamide], the IC50 came out at 0.22 µM. With `C[C@H](NS(=O)(=O)c1cc2cnccc2o1)C(=O)NCc1ccnc(-c2ccc(C(F)(F)F)cc2)c1` [Example 366, (2S)-2-(furo[3,2-c]pyridin-2-ylsulfonylamino)-N-[[2-[4-(trifluoromethyl)phenyl]-4-pyridyl]methyl]propanamide], the IC50 was found to be 0.19 µM. Next, `C[C@H](NS(=O)(=O)c1cc2cnccc2o1)C(=O)NCc1cccc(-c2ccc(C(F)(F)F)cn2)c1` [Example 367, (2S)-2-(furo[3,2-c]pyridin-2-ylsulfonylamino)-N-[[3-[5-(trifluoromethyl)-2-pyridyl]-phenyl]methyl]propanamide]: 0.17 µM; `CC(C)N(CC(=O)NCc1cc(-c2ccc(C(F)(F)F)cc2)ncn1)S(=O)(=O)c1cc2cnccc2o1` [Example 368, 2-[furo[3,2-c]pyridin-2-ylsulfonyl(isopropyl)amino]-N-[[6-[4-(trifluoromethyl)-phenyl]pyrimidin-4-yl]methyl]acetamide]: 0.013 µM; `C[C@H](NS(=O)(=O)c1cc2cnccc2o1)C(=O)NCc1cc(-c2ccc(C(F)(F)F)cc2)nc(N(C)C)n1` [Example 369, (2S)-N-[[2-(dimethylamino)-6-[4-(trifluoromethyl)-phenyl]pyrimidin-4-yl]methyl]-2-(furo[3,2-c]pyridin-2-ylsulfonylamino)propanamide]: 0.044 µM. As for `C[C@H](NS(=O)(=O)c1cc2cc(F)ccc2o1)C(=O)NCc1cc(-c2ccc(C(F)(F)F)cc2)nc(N(C)C)n1` [Example 370, (2S)-N-[[2-(dimethylamino)-6-[4-(trifluoromethyl)-phenyl]pyrimidin-4-yl]methyl]-2-[(5-fluorobenzofuran-2-yl)sulfonylamino]propanamide], the figure is 0.073 µM; as for `CN(C)c1nc(CNC(=O)[C@@H]2CCCN2S(=O)(=O)c2cc3ccccc3o2)cc(-c2ccc(C(F)(F)F)nc2)n1` [Example 371, (2S)-1-(benzofuran-2-ylsulfonyl)-N-[[2-(dimethylamino)-6-[6-(trifluoromethyl)-3-pyridyl]pyrimidin-4-yl]methyl]pyrrolidine-2-carboxamide], 0.01 µM; as for `C[C@H](NS(=O)(=O)c1cc2cc(F)ccc2o1)C(=O)NCc1cc(-c2ccc(C(F)(F)F)nc2)nc(N(C)C)n1` [Example 372, (2S)-N-[[2-(dimethylamino)-6-[6-(trifluoromethyl)-3-pyridyl]pyrimidin-4-yl]methyl]-2-[(5-fluorobenzofuran-2-yl)sulfonylamino]propanamide], 0.027 µM. As for `C[C@H](NS(=O)(=O)c1cc2cnccc2o1)C(=O)NCc1ccc(O)c(-c2ccc(C(F)(F)F)cn2)c1` [Example 373, (2S)-2-(furo[3,2-c]pyridin-2-ylsulfonylamino)-N-[[4-hydroxy-3-[5-(trifluoromethyl)-2-pyridyl]-phenyl]methyl]propanamide], the figure is 0.079 µM; as for `CC(C)N(CC(=O)NCc1ccc(O)c(-c2ccc(C(F)(F)F)cn2)c1)S(=O)(=O)c1cc2cnccc2o1` [Example 374, 2-[furo[3,2-c]pyridin-2-ylsulfonyl(isopropyl)amino]-N-[[4-hydroxy-3-[5-(trifluoromethyl)-2-pyridyl]-phenyl]methyl]acetamide], 0.015 µM.

On to `CN(C)c1nc(CNC(=O)[C@@H]2CCCN2S(=O)(=O)c2cc3cnccc3o2)cc(-c2ccc(C(F)(F)F)cc2)n1` [Example 375, (2S)-N-[[2-(dimethylamino)-6-[4-(trifluoromethyl)phenyl]-pyrimidin-4-yl]methyl]-1-furo[3,2-c]pyridin-2-ylsulfonyl-pyrrolidine-2-carboxamide], for which the IC50 is 0.013 µM. For `CN(C)c1nc(CNC(=O)[C@@H]2CCCN2S(=O)(=O)c2cc3ccccc3o2)cc(-c2ccc(C(F)(F)F)cc2O)n1` [Example 376, (2S)-1-(benzofuran-2-ylsulfonyl)-N-[[2-(dimethylamino)-6-[2-hydroxy-4-(trifluoromethyl)phenyl]-pyrimidin-4-yl]methyl]pyrrolidine-2-carboxamide], the IC50 came out at 0.021 µM.

`C[C@H](NS(=O)(=O)c1cc2cc(F)ccc2o1)C(=O)NCc1cc(-c2ccc(C(F)(F)F)cc2O)nc(N(C)C)n1` [Example 377, (2S)-N-[[2-(dimethylamino)-6-[2-hydroxy-4-(trifluoromethyl)phenyl]-pyrimidin-4-yl]methyl]-2-[(5-fluorobenzofuran-2-yl)sulfonylamino]propanamide]: the IC50 was 0.11 µM. As for `CN(C)c1nc(CNC(=O)[C@@H]2CCCN2S(=O)(=O)c2cc3cc(F)ccc3o2)cc(-c2ccc(C(F)(F)F)cc2)n1` [Example 378, (2S)-N-[[2-(dimethylamino)-6-[4-(trifluoromethyl)phenyl]-pyrimidin-4-yl]methyl]-1-(5-fluorobenzofuran-2-yl)sulfonyl-pyrrolidine-2-carboxamide], the figure is 0.0052 µM; as for `CN(C)c1nc(CNC(=O)[C@@H]2CCN2S(=O)(=O)c2cc3cc(F)ccc3o2)cc(-c2ccc(C(F)(F)F)cc2)n1` [Example 379, (2S)-N-[[2-(dimethylamino)-6-[4-(trifluoromethyl)phenyl]-pyrimidin-4-yl]methyl]-1-(5-fluorobenzofuran-2-yl)sulfonyl-azetidine-2-carboxamide], 0.019 µM. Turning to `O=C(NCc1ccc(O)c(-c2ccc(C(F)(F)F)nn2)c1)[C@@H]1CCCN1S(=O)(=O)c1cc2ccccc2o1` [Example 380, (2S)-1-(benzofuran-2-ylsulfonyl)-N-[[4-hydroxy-3-[6-(trifluoromethyl)pyridazin-3-yl]phenyl]methyl]pyrrolidine-2-carboxamide], the IC50 is 0.0031 µM. `C[C@H](NS(=O)(=O)c1cc2cc(F)ccc2o1)C(=O)NCc1ccc(O)c(-c2ccc(C(F)(F)F)nn2)c1` [Example 381]: the IC50 turned out to be 0.02 µM.

With `Nc1nc(CNC(=O)[C@@H]2CCCN2S(=O)(=O)c2cc3cc(F)ccc3o2)cc(-c2ccc(C(F)(F)F)cc2)n1` [Example 382, (2S)-N-[[2-amino-6-[4-(trifluoromethyl)phenyl]-pyrimidin-4-yl]methyl]-1-(5-fluorobenzofuran-2-yl)sulfonyl-pyrrolidine-2-carboxamide], the IC50 is 0.027 µM. In the case of `O=C(NCc1ccnc(-c2ccc(C(F)(F)F)cc2O)c1)[C@@H]1CCN1S(=O)(=O)c1cc2cc(F)ccc2o1` [Example 383, (2S)-1-(5-fluorobenzofuran-2-yl)sulfonyl-N-[[2-[2-hydroxy-4-(trifluoromethyl)phenyl]-4-pyridyl]methyl]azetidine-2-carboxamide], the IC50 stood at 0.0097 µM.
